Results reported in the supplement of paper PMC10307832.

Experiments:
Assay in all cases: relative viability (nuclei count vs DMSO), 5 days (fraction); higher = more cells survive
NCI-H460 = test system: NCI-H460
Outline: (§1)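 Dosing by pin tool came one day after lung cancer cell lines were seeded in 1536-well plates, using either one drug or a fixed anchor-drug dose plus five library-drug doses (not always all listed) in √10 steps. After 5 days, nuclei were counted on 4× images. Relative viability is treated-well nuclei count divided by vehicle-well nuclei count, and values are medians of duplicate plates.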

NCI-H1944 = test system: NCI-H1944
Outline: as §1

NCI-H3122 = test system: NCI-H3122
Outline: as §1

NCI-H2170 = test system: NCI-H2170
Outline: as §1

NCI-H1651 = test system: NCI-H1651
Outline: as §1

NCI-H2405 = test system: NCI-H2405
Outline: as §1

LC-2-ad = test system: LC-2-ad
Outline: as §1

RERF-LC-KJ = test system: RERF-LC-KJ
Outline: as §1

HCC-78 = test system: HCC-78
Outline: as §1

ChaGo-K-1 = test system: ChaGo-K-1
Outline: as §1

UMC-11 = test system: UMC-11
Outline: as §1

NCI-H2228 = test system: NCI-H2228
Outline: as §1

LOU-NH91 = test system: LOU-NH91
Outline: as §1

PC-3 [JPC-3] = test system: PC-3 [JPC-3]
Outline: as §1

CAL-12T = test system: CAL-12T
Outline: as §1

NCI-H2087 = test system: NCI-H2087
Outline: as §1

NCI-H1755 = test system: NCI-H1755
Outline: as §1

LU99A = test system: LU99A
Outline: as §1

ABC-1 = test system: ABC-1
Outline: as §1

HCC-366 = test system: HCC-366
Outline: as §1

CC(=O)O[C@@]12CO[C@@H]1C[C@H](O)[C@@]1(C)C(=O)[C@H](O)C3=C(C)[C@@H](OC(=O)[C@H](O)[C@@H](NC(=O)OC(C)(C)C)c4ccccc4)C[C@@](O)([C@@H](OC(=O)c4ccccc4)[C@H]21)C3(C)C [Docetaxel] + C[C@@H](Oc1cc(-c2cnn(C3CCNCC3)c2)cnc1N)c1c(Cl)ccc(F)c1Cl [Crizotinib] (partner 1 µM)
relative viability (NCI-H460; first compound 0.0002 µM): 0.73
relative viability (NCI-H460; first compound 0.000632 µM): 0.673
relative viability (NCI-H460; first compound 0.002 µM): 0.0086
relative viability (NCI-H460; first compound 0.006325 µM): 0.0137
relative viability (NCI-H460; first compound 0.02 µM): 0.0093
relative viability (NCI-H1944; first compound 0.0002 µM): 1.13
relative viability (NCI-H1944; first compound 0.000632 µM): 1.01
relative viability (NCI-H1944; first compound 0.002 µM): 0.956
relative viability (NCI-H1944; first compound 0.006325 µM): 0.192
relative viability (NCI-H1944; first compound 0.02 µM): 0.137
relative viability (NCI-H3122; first compound 0.0002 µM): 0.241
relative viability (NCI-H3122; first compound 0.000632 µM): 0.257
relative viability (NCI-H3122; first compound 0.002 µM): 0.26
relative viability (NCI-H3122; first compound 0.006325 µM): 0.207
relative viability (NCI-H3122; first compound 0.02 µM): 0.178
relative viability (NCI-H2170; first compound 0.0002 µM): 1.04
relative viability (NCI-H2170; first compound 0.000632 µM): 0.999
relative viability (NCI-H2170; first compound 0.002 µM): 0.671
relative viability (NCI-H2170; first compound 0.006325 µM): 0.304
relative viability (NCI-H2170; first compound 0.02 µM): 0.199
relative viability (NCI-H1651; first compound 0.0002 µM): 0.835
relative viability (NCI-H1651; first compound 0.000632 µM): 0.876
relative viability (NCI-H1651; first compound 0.002 µM): 0.612
relative viability (NCI-H1651; first compound 0.006325 µM): 0.168
relative viability (NCI-H1651; first compound 0.02 µM): 0.167
relative viability (NCI-H2405; first compound 0.0002 µM): 0.87
relative viability (NCI-H2405; first compound 0.000632 µM): 0.623
relative viability (NCI-H2405; first compound 0.002 µM): 0.447
relative viability (NCI-H2405; first compound 0.006325 µM): 0.396
relative viability (NCI-H2405; first compound 0.02 µM): 0.292
relative viability (LC-2-ad; first compound 0.0002 µM): 0.388
relative viability (LC-2-ad; first compound 0.000632 µM): 0.342
relative viability (LC-2-ad; first compound 0.002 µM): 0.318
relative viability (LC-2-ad; first compound 0.006325 µM): 0.389
relative viability (LC-2-ad; first compound 0.02 µM): 0.222
relative viability (RERF-LC-KJ; first compound 0.0002 µM): 0.868
relative viability (RERF-LC-KJ; first compound 0.000632 µM): 0.7
relative viability (RERF-LC-KJ; first compound 0.002 µM): 0.509
relative viability (RERF-LC-KJ; first compound 0.006325 µM): 0.196
relative viability (RERF-LC-KJ; first compound 0.02 µM): 0.166
relative viability (HCC-78; first compound 0.0002 µM): 0.33
relative viability (HCC-78; first compound 0.000632 µM): 0.32
relative viability (HCC-78; first compound 0.002 µM): 0.245
relative viability (HCC-78; first compound 0.006325 µM): 0.308
relative viability (HCC-78; first compound 0.02 µM): 0.223
relative viability (ChaGo-K-1; first compound 0.0002 µM): 1.06
relative viability (ChaGo-K-1; first compound 0.000632 µM): 0.813
relative viability (ChaGo-K-1; first compound 0.002 µM): 0.457
relative viability (ChaGo-K-1; first compound 0.006325 µM): 0.339
relative viability (ChaGo-K-1; first compound 0.02 µM): 0.263
relative viability (UMC-11; first compound 0.0002 µM): 0.612
relative viability (UMC-11; first compound 0.000632 µM): 0.485
relative viability (UMC-11; first compound 0.002 µM): 0.122
relative viability (UMC-11; first compound 0.006325 µM): 0.108
relative viability (UMC-11; first compound 0.02 µM): 0.084
relative viability (NCI-H2228; first compound 0.0002 µM): 0.358
relative viability (NCI-H2228; first compound 0.000632 µM): 0.292
relative viability (NCI-H2228; first compound 0.002 µM): 0.22
relative viability (NCI-H2228; first compound 0.006325 µM): 0.278
relative viability (NCI-H2228; first compound 0.02 µM): 0.159
relative viability (LOU-NH91; first compound 0.0002 µM): 0.734
relative viability (LOU-NH91; first compound 0.000632 µM): 0.664
relative viability (LOU-NH91; first compound 0.002 µM): 0.508
relative viability (LOU-NH91; first compound 0.006325 µM): 0.373
relative viability (LOU-NH91; first compound 0.02 µM): 0.362
relative viability (PC-3 [JPC-3]; first compound 0.0002 µM): 0.966
relative viability (PC-3 [JPC-3]; first compound 0.000632 µM): 0.918
relative viability (PC-3 [JPC-3]; first compound 0.002 µM): 0.635
relative viability (PC-3 [JPC-3]; first compound 0.006325 µM): 0.223
relative viability (PC-3 [JPC-3]; first compound 0.02 µM): 0.172
relative viability (CAL-12T; first compound 0.0002 µM): 0.717
relative viability (CAL-12T; first compound 0.000632 µM): 0.341
relative viability (CAL-12T; first compound 0.002 µM): 0.146
relative viability (CAL-12T; first compound 0.02 µM): 0.096
relative viability (NCI-H2087; first compound 0.0002 µM): 0.854
relative viability (NCI-H2087; first compound 0.000632 µM): 0.684
relative viability (NCI-H2087; first compound 0.002 µM): 0.334
relative viability (NCI-H2087; first compound 0.006325 µM): 0.182
relative viability (NCI-H2087; first compound 0.02 µM): 0.156
relative viability (NCI-H1755; first compound 0.0002 µM): 0.833
relative viability (NCI-H1755; first compound 0.000632 µM): 0.535
relative viability (NCI-H1755; first compound 0.002 µM): 0.503
relative viability (NCI-H1755; first compound 0.006325 µM): 0.382
relative viability (NCI-H1755; first compound 0.02 µM): 0.353
relative viability (LU99A; first compound 0.0002 µM): 0.522
relative viability (LU99A; first compound 0.000632 µM): 0.401
relative viability (LU99A; first compound 0.002 µM): 0.367
relative viability (LU99A; first compound 0.006325 µM): 0.278
relative viability (LU99A; first compound 0.02 µM): 0.196
relative viability (ABC-1; first compound 0.0002 µM): 1.04
relative viability (ABC-1; first compound 0.000632 µM): 0.78
relative viability (ABC-1; first compound 0.002 µM): 0.274
relative viability (ABC-1; first compound 0.006325 µM): 0.275
relative viability (ABC-1; first compound 0.02 µM): 0.242
relative viability (HCC-366; first compound 0.0002 µM): 0.426
relative viability (HCC-366; first compound 0.000632 µM): 0.0953
relative viability (HCC-366; first compound 0.002 µM): 0.0204
relative viability (HCC-366; first compound 0.006325 µM): 0.0165
relative viability (HCC-366; first compound 0.02 µM): 0.0108
